Here are results for 1 molecule from patent publication US7253175B2, “Method for treating athlete's foot” (priority 2003, dated 2007).

For the assay, the system named is athlete's foot (fungal infection of toe nails and skin of the feet). Briefly: Treatment of a patient with athlete's foot (case example). It counts as in vivo, human. An excerpt: Fungal infections, including tineapedis (fungal infections on the feet), tineamanus (fungal infections on the hands) and tineacorporis (fungal infections on the body), are diagnosed by methods or tests commonly conducted by a person of ordinary skill in the art. The common symptoms of such disease are described above. In the case of fungal infection on nails such as finger nails and toenails, the infected areas usually show thickening of the nails with white spots, while if the skin is infected, itching scaling, redness and/or blisters will appear. A laboratory test may be conducted by culturing a skin sample or nail sample in the infected area in an appropriate medium to observe the growth of fungi. The infections may also be identified by scraping the infected skin or nail and examining the such specimen under a microscope in the presence of potassium hydroxide, which assists to determine the presence of fungi.
A patient suffered from athlete's foot for four years. The patients toe nails had became whitening, thickening and cracking due to the infection. […] The patient was reported to experienced pain due to the thickening and cracking of the toe nails the swelling of the skin. […]

SMILES strings stand for the structures. Structures can show the parent of a compound that is named as a salt.

As for `CC(C)[C@H](N)C(=O)OCCOCn1cnc2c(=O)[nH]c(N)nc21` [Valtrex, L-valine, 2-[(2-amino-1,6-dihydro-6-oxo-9H-purin-9-yl)methoxy]ethyl ester, monhydrochloride], the “laboratory test for fungal infections on the patient's toe nails and skin” value (after daily dosage of three grams divided into three times for seven days) is on record as “no longer fungal infections”. For the same molecule, the “symptoms of the patient's athlete's foot at the end of treatment” value (patient, about 230 pounds, daily dosage of three grams divided into three times for seven days) was “completely disappear”.
